From ChEMBL document CHEMBL4346660, “Cryptolepine and aromathecin based mimics as potent G-quadruplex-binding, DNA-cleavage and anticancer agents: Design, synthesis and DNA targeting-induced apoptosis” (Eur J Med Chem, 2019)
The source made the active and inactive calls. The rule behind the calls is not given here.

What was measured:
MGC-803 [1] = experiment: Cell cycle arrest in human MGC803 cells assessed as change in cyclin A2 expression at 0.5 to 2.5 uM incubated for 24 hrs by immunoblot analysis; assay type: functional, cell-based
MGC-803 [2] = experiment: Induction of apoptosis in human MGC803 cells assessed as viable cells at 1 uM incubated for 24 hrs by Annexin V-FITC/propidium iodide staining based flow cytometry (reference value: 96.53+/-2.11%); assay type: functional; details: MGC-803, 24 h, read-out: Activity
MGC-803 [3] = experiment: Induction of apoptosis in human MGC803 cells assessed as late apoptotic cells at 0.5 uM incubated for 24 hrs by Annexin V-FITC/propidium iodide staining based flow cytometry (reference value: 0.69 +/- 0.05 %); assay type: functional
MGC-803 [4] = experiment: Induction of apoptosis in human MGC803 cells assessed as necrotic cells at 2.5 uM incubated for 24 hrs by Annexin V-FITC/propidium iodide staining based flow cytometry (reference value: 1.81 +/- 0.09 %); assay type: functional
MGC-803 [5] = experiment: Induction of apoptosis in human MGC803 cells assessed as formation of apoptotic bodies at 2.5 uM after 24 hrs by Hoechst 33258 staining-based fluorescence microscopic method; assay type: functional, cell-based
MGC-803 [6] = experiment: Induction of apoptosis in human MGC803 cells assessed as increase in Bim levels at 0.5 to 2.5 uM after 24 hrs by Western blot analysis; assay type: functional, cell-based
MGC-803 [7] = experiment: Induction of apoptosis in human MGC803 cells assessed as activated caspase-3 level at 2.5 uM after 24 hrs by FITC staining-based flow cytometric analysis (Rvb= 3.46%); assay type: functional

SMILES: CN(C)CCCNc1c2c(nc3ccc(F)cc13)-c1ccccc1C2
- Activity (MGC-803 [1]): inactive
- viability at 1 µM (MGC-803 [2]): 58.3%
- Activity (MGC-803 [3]): 4.15%
- Activity (MGC-803 [4]): 4.01%
- Activity (MGC-803 [5]): Active
- Activity (MGC-803 [6]): Active
- Activity (MGC-803 [7]): 45.1%
